From patent US8846657B2, “Substituted imidazopyridines as HDM2 inhibitors” (Merck Sharp & Dohme Corp., priority 2012, dated 2014) come the findings set out here.

Chain of HDM2 (Q00987 17-125): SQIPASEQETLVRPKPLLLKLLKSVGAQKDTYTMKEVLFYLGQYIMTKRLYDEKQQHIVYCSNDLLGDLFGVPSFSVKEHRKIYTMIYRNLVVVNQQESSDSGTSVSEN

One test concerns the target HDM2 (Homo sapiens (Human), UniProt Q00987). Kind of test: HDM2 FRET assay (inhibition of p53 peptide binding to HDM2). The conditions noted are these: read-out: FRET IC50.
Text: Methods: An HDM2 FRET assay was developed to assess the compounds' inhibitory activity towards binding of p53 protein. […] Ratio of em520/em495 was used to calculate % inhibition and to obtain IC50 with 4-parameter logistic equation.
Concentration of compound was plotted against em520/Cem495 ratio signal. To generate IC50 values, the dose-response curves were fitted to a standard sigmoidal curve and IC50 values were derived by nonlinear regression analysis.
What is called IC50 is the concentration needed to halve the response being measured. With `C[C@H]1CC[C@H](Cn2c(N3CCC[C@H]3C(F)(F)F)nc3cc(-c4nnn[nH]4)nc(-c4cncc(Cl)c4)c32)CC1` [Example 14.1, 4-(5-chloropyridin-3-yl)-3-[(trans-4-methylcyclohexyl)methyl]-6-(1H-tetrazol-5-yl)-2-[(2S)-2-(trifluoromethyl)pyrrolidin-1-yl]-3H-imidazo[4,5-c]pyridine], the IC50 was below 1 nM.
The same measure, in the same setting: to `C[C@H]1CC[C@H](Cn2c(N3CCO[C@@H]4CCC[C@H]43)nc3cc(-c4nnn[nH]4)nc(-c4cncc(Cl)c4)c32)CC1` [Example 14.4, 4-(5-chloropyridin-3-yl)-2-[(4aR,7aR)-hexahydrocyclopenta[b][1,4]oxazin-4(4aH)-yl]-3-[(trans-4-methylcyclohexyl)methyl]-6-(1H-tetrazol-5-yl)-3H-imidazo[4,5-c]pyridine] belongs below 1 nM.

Staying with this test, now noted: read-out: FRET IC50; 0.5 nM HDM2 (residues 17-125), 3 nM FITC peptide, 2 h at room temperature; values rounded to the nearest integer.
For `C[C@H]1CC[C@H](Cn2c(N3CCC[C@H]3c3nccs3)nc3cc(-c4noc(=O)[nH]4)nc(-c4cncc(Cl)c4)c32)CC1` [Example 3.81, 3-{4-(5-chloropyridin-3-yl)-3-[(trans-4-methylcyclohex-yl)methyl]-2-[(2S)-2-(1,3-thiazol-2-yl)pyrrolidin-1-yl]-3H-imidazo[4,5-c]pyridin-6-yl}-1,2,4-oxadiazol-5(4H)-one], the IC50 was below 1 nM.
`COCCO[C@@H]1C[C@@H](C(C)C)N(c2nc3cc(-c4noc(=O)[nH]4)nc(-c4cncc(Cl)c4)c3n2C[C@H]2CC[C@H](C)CC2)C1` [Example 3.144, 3-{4-(5-chloropyridin-3-yl)-2-[(2S,4R)-4-(2-methoxyethoxy)-2-(1-methylethyl)-pyrrolidin-1-yl]-3-[(trans-4-methylcyclohex-yl)methyl]-3H-imidazo[4,5-c]pyridin-6-yl}-1,2,4-oxadiazol-5(4H)-one]: the IC50 was below 1 nM.
On to `CO[C@@H]1C[C@@H](C(C)C)N(c2nc3cc(-c4noc(=O)[nH]4)nc(-c4cncc(Cl)c4)c3n2C[C@H]2CC[C@H](C)CC2)C1` [Example 3.90, 3-{4-(5-chloropyridin-3-yl)-2-[(2S,4R)-4-methoxy-2-(propan-2-yl)pyrrolidin-1-yl]-3-[(trans-4-methylcyclohexyl)methyl]-3H-imidazo[4,5-d]pyridin-6-yl}-1,2,4-oxadiazol-5(4H)-one], for which the IC50 was below 1 nM.
For the compound `C[C@H]1CC[C@H](Cn2c(N3CCOC[C@H]3c3ccccc3)nc3cc(-c4noc(=O)[nH]4)nc(-c4cncc(Cl)c4)c32)CC1` [Example 2.1, 3-{4-(5-chloropyridin-3-yl)-3-[(trans-4-methylcyclohexyl)methyl]-2-[(3R)-3-phenylmorpholin-4-yl]-3H-imidazo[4,5-c]pyridin-6-yl}-1,2,4-oxadiazol-5(4H)-one], the IC50 was below 1 nM.
